The record followed here is publication PMC2697495 (The Journal of pharmacy and pharmacology, 2008).

Marks after values point to notes of the source that are not given here.

One series has as its target T1, UGT1A4 (Homo sapiens, UniProt P22310).
T1 sequence (P22310 29-534): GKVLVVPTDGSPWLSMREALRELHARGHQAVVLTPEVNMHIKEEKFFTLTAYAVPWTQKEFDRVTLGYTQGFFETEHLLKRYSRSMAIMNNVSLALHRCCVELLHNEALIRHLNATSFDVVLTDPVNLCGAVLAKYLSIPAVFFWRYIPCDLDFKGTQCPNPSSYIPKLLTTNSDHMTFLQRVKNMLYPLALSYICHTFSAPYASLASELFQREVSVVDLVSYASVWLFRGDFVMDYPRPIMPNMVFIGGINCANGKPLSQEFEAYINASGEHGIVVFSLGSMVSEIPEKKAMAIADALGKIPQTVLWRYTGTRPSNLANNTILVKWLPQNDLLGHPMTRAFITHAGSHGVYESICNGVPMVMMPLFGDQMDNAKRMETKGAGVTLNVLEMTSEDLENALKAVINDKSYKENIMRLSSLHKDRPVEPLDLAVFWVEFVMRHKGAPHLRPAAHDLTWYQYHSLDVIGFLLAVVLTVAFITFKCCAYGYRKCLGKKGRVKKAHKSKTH
Kind of series: Trifluoperazine glucuronidation by recombinant UGT1A4. It is filed as biochemical. To be noted: for Trifluoperazine glucuronidation, % of the control activity (measured at 0 mM): UGT1A4, 200 μM trifluoperazine, n=3.

Series [1] has as its system pooled human liver microsomes (pHLMs). Kind of series: e-4-hydroxy-tamoxifen glucuronidation by pHLMs. It is filed as biochemical. To be noted: 20 mM saccharolactone, pH-adjusted to 7.5.

One may read the inhibition as the relative decrease from the control value, in per cent. Turning to `O=C(O)[C@@H](O)[C@H]1OC(=O)[C@H](O)[C@H]1O` [saccharolactone, D-saccharic acid 1,4-lactone], the “Trifluoperazine glucuronidation, % of the control activity (measured at 0 mM)” value on UGT1A4 (5 mM saccharolactone) is 90±4%; at UGT1A4 (20 mM saccharolactone), 82±5 ^a %. The inhibition at 20 mM on UGT1A4 (human, pH 7.5, probe trifluoperazine) is 18%. Further, the “decrease in e-4-hydroxy-tamoxifen glucuronidation activity” value in series [1] is recorded as 17%.
